Entries after “also recorded” stand apart in the source; their conditions may differ.

Series [1] concerns 4T1 cells. The series can be described thus: In vitro killing assay: naïve mouse neutrophils co-cultured with luciferase labelled 4T1 cells in the presence of chemokines. The format is cell-based. The settings on record: naïve mouse neutrophils co-cultured with 4T1 cells, chemokine 20 ng/ml, overnight. The text has this:
(§1) Antibodies used for immunohistochemistry—MMP9, F4/80 and CCR2 (all from AbCam), Myeloperoxidase (Dako), Ly-6G and Cd11b (both from BD), and Cleaved Caspase 3 (Cell signalling). Antibodies used for western blotting—Actin (Sigma), CCL2 (AbCam) and CCL5 (R&D) p-SMAD2 (cell signalling). Antibodies used for FACS analysis FITC-Ly-6G, FITC-Cd11b, FITC-F4/80, FITC-Cd34 and FITC-c-Kit (all from BD) and VEGFR1-AP (R&D). Neutrophil Depletion Neutrophil depletion was achieved using daily IP injections of 12.5 μg Rat anti-Gr-1 antibody (BD) or Rat anti-Ly-6G antibody (BD) starting on day 3 post tumour engraftment. Starting on day 14, neutrophil depleting antibodies were administered twice daily. Control mice were injected with […] Rat isotype control (BD). Neutrophil depletion was monitored by manual blood differentials and FACS analysis. Flow Cytometry Peripheral blood was collected into EDTA-coated tubes, washed and resuspended in FACS buffer solution (PBS, 2% heat-inactivated FCS, 5 mM EDTA, and 0.02% sodium azide). The samples were blocked with […] and then incubated with fluorophore-conjugated antibodies. Erythrocytes were then lysed with FACS lysing solution (BD Biosciences) and the cell suspensions were analyzed on a FACSCalibur (BD Biosciences). Colony Formation Assay Female nude mice were orthotopically injected with 5×10^6 puromicin resistant 4T1 cells. On days 7 and 14 post tumour engraftment the mice were sacrificed and perfused with PBS. The lungs and livers were removed, washed with PBS and dissociated with Collagenase A (Roche). The single cell suspension was then plated onto puromicin containing media and selected for 14 day. Colonies were stained with Methylene-Blue and counted manually. Mouse Neutrophil Purification Whole blood was collected by cardiac puncture using heparinized (Sigma) syringe. The blood was diluted with 5 volumes of PBS containing 0.5% BSA and subjected to a discontinuous Histopaque (Sigma) gradient (1.077 and 1.119). Neutrophils were collected from the 1.077-1.119 interface, lymphocytes and monocytes collected from the plasma-1.077 interface. RBCs were eliminated by hypotonic lysis. The cells were washed twice with PBS-BSA and re-suspended in OptiMEM (Invitrogen) 0.5% FBS in a final concentration of 2×10^6 cells/ml. Neutrophil purity and viability were determined visually and were consistently >98%. Human Neutrophil Purification As part of a Memorial Sloan-Kettering Cancer Center institutionally approved protocol, blood samples (˜10 cc) were collected from healthy volunteers or from patients who were already having blood drawn for pre-surgical testing. Patients were consented accordingly as part of the approved protocol. […] Patients had either mastectomies or lumpectomies planned and had blood drawn prior to definitive surgical removal of their primary tumor or chemotherapy. Blood samples were transferred to the lab for analysis no more than 1 hour post-blood draw. Heparinzed blood (20 U/ml final) was mixed with an equal volume of Dextran 500 (3% in saline) and incubated 30 minutes at room temperature. The leukocyte-rich supernatant was layered on top of histopaque 1077 (Sigma) and centrifuged. Neutrophils, collected in the pellet fraction, were resuspended in 10 ml 0.2% NaCl for 30 seconds to remove contaminating erythrocytes. Isotonicity was restored by the addition of 10 ml 1.6% NaCl. Neutrophils were than washed three times in Hanks's balanced salt solution and resuspended in RPMI+FCS2%. In vitro Killing Assay Luciferase labelled cells (5,000/well) were plated on a 96-well, flat bottom white polystyrene tissue culture plate in OptiMEM 0.5% FBS (mouse neutrophils) or RPMI 2% FBS (human neutrophils). 4 hours later, purified neutrophils (100,000/well for mouse neutrophils and 5000 for human neutrophils) were added to the plated tumour cells and co-cultured overnight. […]

Series [2] deals with 4T1 cells. Kind of series: In vitro killing assay: TENs co-cultured with 4T1 cells in the presence of inhibitors or TGF-β. The series is classed as cell-based, mouse. The settings on record: for TEN mediated in vitro killing of 4T1 cells in the presence of TGF-β: picomolar concentrations (up to 200 pMolar); for neutrophil (TEN) mediated tumour-cell killing in the presence of inhibitor: TENs + 4T1 cells overnight, Apocynin 100 μM, Catalase 1,000 u/ml, Superoxide Dismutase 1,000 u/ml, Taurine 50 mM.
Description: as §1

For the next series, the system named is MDA-MB-231 cells. Kind of series: In vitro killing assay: human neutrophils co-cultured with luciferase labelled MDA-MB-231 cells. The note with it: naïve human neutrophils:tumor cells 1:1, chemokine 100 ng/ml (rhG-CSF 20 ng/ml), overnight. The format is cell-based.
Description: Luciferase is under a constitutive promoter so cell death results in a decrease in luciferase activity because there is no transcription/translation of the lucierferase gene. The assay itself requires lysing of the cell to release the luciferase to mix with the luciferin and measure the luminescence. But it isn't that they dying cell releases luciferase. More signal means more luciferase which means more live cells. […]. […] Nave human neutrophils were co-cultured with MDA-MB-231 cells. […] Cells were seeded at a ratio of human neutrophils:human tumor cells=1:1.
as §1, with “NaCl.” for “NaCl. Neutrophils were than washed three times in Hanks's balanced salt solution and resuspended in RPMI+FCS2%. In vitro Killing Assay Luciferase labelled cells (5,000/well) were plated on a 96-well, flat bottom white polystyrene tissue culture plate in OptiMEM 0.5% FBS (mouse neutrophils) or RPMI 2% FBS (human neutrophils). 4 hours later, purified neutrophils (100,000/well for mouse neutrophils and 5000 for human neutrophils) were added to the plated tumour cells and co-cultured overnight.”

Series [3] has as its system 4T1 cells. The series can be described thus: In vivo stimulation of neutrophils with chemokines, purified neutrophils co-cultured with 4T1 cells. The format is cell-based, mouse. The settings on record: healthy mice treated in vivo with G-CSF alone or G-CSF plus chemokine. Here is the method: A. To test which chemokines may participate in the stimulation of neutrophils, neutrophils purified from healthy mice were co-culture with luciferase labeled 4T1 cells in the presence (20 ng/ml of chemokine) or absence of certain chemokines for an overnight incubation. […] B. To test which chemokines are sufficient for in vivo stimulation of neutrophils healthy mice were treated with G-CSF (to boost neutrophil numbers) and either CCL2, CCL5 or CXCL1. Control mice were treated with G-CSF alone. Neutrophils were purified from these mice and co-cultured with Luciferase-labeled 4T1 cells. […] Conclusion—CCL2 and to a lesser degree CCL5 can stimulate tumor cell killing both in vitro and in vivo.

In the case of “mCCL2: mouse CCL2 from R&D, used at 20 ng/ml”, in the series on 4T1 cells [1], the “neutrophil mediated killing of 4T1 cells (tumor cell viability by luciferase activity)” value (from here on “neutrophil mediated killing of 4T1 cells”) is listed as “induces neutrophil mediated cell killing; also recorded: induced tumour cell killing in vitro”. For the molecule TGF-β, the results for the “TEN mediated in vitro killing of 4T1 cells in the presence of TGF-β” value in the series with 4T1 cells [2] and in the series on 4T1 cells [2] (listed as TGF-Beta) were “dramatic inhibitory effect” and “dramatically inhibited TENs cytotoxicity towards tumour cells”, respectively.

`NCCS(=O)(=O)O` [Taurine]: the “neutrophil (TEN) mediated tumour-cell killing in the presence of inhibitor” value (“neutrophil … of inhibitor” below) with 4T1 cells [2] is on record as “does not inhibit tumour-cell killing”; in the series on 4T1 cells [2] (listed as taurine), “did not reduce tumour-cell killing”. On to CCL3: CC chemokine, for which, in the series on 4T1 cells [1], the “neutrophil mediated killing of 4T1 cells” value is given as “no significant effect on tumor-cell viability”. In addition, in the series with MDA-MB-231 cells, the “neutrophil cytotoxicity / neutrophil mediated killing of MDA-MB-231 cells” value is “significantly increase neutrophil cytotoxicity”. For “hCCL5: human CCL5 from R&D, used at 100 ng/ml”, in the series on MDA-MB-231 cells, the “neutrophil cytotoxicity / neutrophil mediated killing of MDA-MB-231 cells” value is on record as “induces neutrophil mediated cell killing; also recorded: induce the killing of human MDA-MB-231 in vitro”. On the same count and under the same terms, as for “hCCL2: human CCL2 from R&D, used at 100 ng/ml”, the entry is “induces neutrophil mediated cell killing; also recorded: induce the killing of human MDA-MB-231 in vitro”. Turning to CXCL12: CXC chemokine, the “neutrophil mediated killing of 4T1 cells” value in the series on 4T1 cells [1] is “no significant effect on tumor-cell viability”. Besides, the “neutrophil cytotoxicity / neutrophil mediated killing of MDA-MB-231 cells” value with MDA-MB-231 cells is on record as “significantly increase neutrophil cytotoxicity”. With Catalase, the “neutrophil … of inhibitor” value in the series on 4T1 cells [2] is given as “completely inhibits tumour-cell killing”; with 4T1 cells [2] (listed as catalase) it was “completely inhibits cell killing”. With CXCL1: CXC chemokine, the “neutrophil mediated killing of 4T1 cells” value in the series on 4T1 cells [1] was “no significant effect on tumor-cell viability”. The “viability of 4T1 cells co-cultured with neutrophils purified from chemokine treated mice” value in the series with 4T1 cells [3] was “did not induce a reduction in cell viability”. Besides, the “neutrophil cytotoxicity / neutrophil mediated killing of MDA-MB-231 cells” value with MDA-MB-231 cells is listed as “to a lesser extent CXCL1 significantly increase neutrophil cytotoxicity”. In the case of Superoxide Dismutase, the “neutrophil … of inhibitor” value in the series on 4T1 cells [2] is “does not”; in the series with 4T1 cells [2] (listed as superoxide dismutase) it was “did not inhibit cell death”.

B1: CXCL16: CXC chemokine (protein, UniProt Q9H2A7 30-254, looked up)
C-X-C motif chemokine 16: NEGSVTGSCYCGKRISSDSPPSVQFMNRLRKHLRAYHRCLYYTRFQLLSWSVCGGNKDPWVQELMSCLDLKECGHAYSGIVAHQKHLLPTSPPISQASEGASSDIHTPAQMLLSTLQSTQRPTLPVGSLSSDKELTRPNETTIHTAGHSLAAGPEAGENQKQPEKNAGPTARTSATVPVLCLLAIIFILTAALSYVLCKRRRGQSPQSSPDLPVHYIPVAPDSNT
As to B1, in the series with 4T1 cells [1], the “neutrophil mediated killing of 4T1 cells” value is “significant reduction in tumor cell viability”. Moreover, the “neutrophil cytotoxicity / neutrophil mediated killing of MDA-MB-231 cells” value with MDA-MB-231 cells was “significantly increase neutrophil cytotoxicity”.

B2: CCL4: CC chemokine (protein, UniProt P13236 24-92, looked up)
C-C motif chemokine 4: APMGSDPPTACCFSYTARKLPRNFVVDYYETSSLCSQPAVVFQTKRSKQVCADPSESWVQEYVYDLELN
As to B2, the “neutrophil mediated killing of 4T1 cells” value in the series on 4T1 cells [1] is listed as “significant reduction in tumor cell viability”. Besides, the “neutrophil cytotoxicity / neutrophil mediated killing of MDA-MB-231 cells” value in the series with MDA-MB-231 cells is listed as “but not CCL4 significantly increase neutrophil cytotoxicity”.

The values above are taken from US9199028B2, “Use of entrained neutrophils to treat metastatic and micrometastatic disease in at risk patients” (MEMORIAL SLOAN-KETTERING CANCER CENTER, priority 2010, dated 2015).
